Measured values reported in patent publication US9326978B2, “A3 adenosine receptor allosteric modulators” (The United States of America, Represented by the Secretary, …, priority 2006, dated 2016).
Where “and” joins values, the source holds several entries; their conditions need not be identical. Equal entries are not always repeated.

What was measured:
hA2BAR = hA2BAR (Homo sapiens (Human), UniProt P29275); assay: Effect on NECA-induced cyclic AMP accumulation at A2B receptor; note: NECA (150 nM)-induced cyclic AMP accumulation; format: cell-based; settings: read-out: hA2BAR % inhib. at 10 μM
hA2BAR, sequence (P29275 whole entry): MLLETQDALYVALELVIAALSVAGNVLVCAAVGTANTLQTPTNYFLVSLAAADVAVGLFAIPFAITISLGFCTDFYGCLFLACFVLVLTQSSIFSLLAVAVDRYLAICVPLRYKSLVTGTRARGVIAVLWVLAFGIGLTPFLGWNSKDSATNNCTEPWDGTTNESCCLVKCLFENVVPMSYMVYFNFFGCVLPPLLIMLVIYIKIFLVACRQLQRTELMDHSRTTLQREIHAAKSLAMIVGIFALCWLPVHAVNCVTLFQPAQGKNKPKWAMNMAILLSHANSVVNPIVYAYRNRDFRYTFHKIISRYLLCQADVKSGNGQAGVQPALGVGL

human A3ARs = human A3ARs (Homo sapiens (Human), UniProt P0DMS8); assay: Cyclic AMP accumulation assay, efficacy at hA3AR; format: cell-based; settings: compared to maximal effect by 2-Cl-IB-MECA alone (control = 100%)
human A3ARs, sequence (P0DMS8 whole entry): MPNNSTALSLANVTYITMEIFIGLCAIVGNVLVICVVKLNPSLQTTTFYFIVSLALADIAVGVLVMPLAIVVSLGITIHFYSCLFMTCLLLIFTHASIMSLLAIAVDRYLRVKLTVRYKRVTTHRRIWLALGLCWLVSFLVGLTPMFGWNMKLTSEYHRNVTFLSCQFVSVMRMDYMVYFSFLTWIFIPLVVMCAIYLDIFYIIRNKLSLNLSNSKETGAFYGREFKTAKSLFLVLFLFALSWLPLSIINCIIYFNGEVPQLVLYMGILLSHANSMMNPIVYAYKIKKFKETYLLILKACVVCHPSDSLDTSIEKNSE
Description: Intracellular cyclic AMP levels were measured with a competitive protein binding method (Nordstedt and Fredholm, 1990). CHO cells that expressed recombinant human A3ARs were harvested by trypsinization. After centrifugation and resuspension in medium, cells were plated in 24-well plates in 0.5 ml medium. After 24 hr, the medium was removed and cells were washed three times with 1 ml DMEM, containing 50 mM HEPES, pH 7.4. Cells were then treated with agonists and/or test compounds in the presence of rolipram (10 μM) and adenosine deaminase (3 units/ml). After 45 min forskolin (10 μM) was added to the medium, and incubation was continued an additional 15 min. The reaction was terminated by removing the supernatant, and cells were lysed upon the addition of 200 μL of 0.1 M ice-cold HCl. The cell lysate was resuspended and stored at −20° C. For determination of cyclic AMP production, protein kinase A (PKA) was incubated with [^3H]cyclic AMP (2 nM) in K2HPO4/EDTA buffer (K2HPO4, 150 mM; EDTA, 10 mM), 20 μL of the cell lysate, and 30 μL 0.1 M HCl or 50 μL of cyclic AMP solution (0-16 pmol/200 μL for standard curve). Bound radioactivity was separated by rapid filtration through Whatman GF/C filters and washed once with cold buffer. Bound radioactivity was measured by liquid scintillation spectrometry.

hA3AR = hA3AR (Homo sapiens (Human), UniProt P0DMS8); assay: GTPγS binding at hA3AR; format: biochemical
hA3AR, sequence (P0DMS8 whole entry): as above

SMILES: Clc1ccc(Nc2nc3ccccc3c3[nH]c(C4CCCCC4)nc23)cc1Cl [Compound 45, N-(3,4-Dichloro-phenyl)-2-cyclohexyl-1H-imidazo[4,5-c]quinolin-4-amine]
- inhibition at 10 µM (hA2BAR): -5.6%
- % Increase of efficacy at hA3AR at 10 μM (human A3ARs): 145 ± 7%
- Enhancement of GTPγS binding (%) at hA3AR at 10 μM (hA3AR; 10 μM Cl-IB-MECA alone = 100%, Table 3): 194 ± 11% and 177%
- Relative efficacy (%) at hA3AR at 10 μM (GTPγS binding) in absence of agonist (hA3AR; absence of agonist, 10 μM Cl-IB-MECA alone = 100%): 6%
- Enhancement of GTP[…]S binding (%) at hA3AR at 10 μM (hA3AR; compared to maximal effect by 2-Cl-IB-MECA alone (control), Table 4): 194 ± 11%
